Test results: ChEMBL document CHEMBL1201862, “PubChem BioAssay data set” (2004)
Calls of active or inactive are those of the source.

Key:
[1] = cytotoxicity toward NIH3T3 fibroblasts, dose response, counter-screen, cell-based, ATP luminescence, mouse fibroblasts (AID 2010); assay type: functional;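 further: cells exposed to compound for about 90 hours before reading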
[2] = molecular target: Nucleotide-binding oligomerization domain-containing protein 2 (Homo sapiens, UniProt Q9HC29); experiment: NOD2 signaling inhibitors, cell-based, luminescence, uHTS, HEK293 (AID 1566); assay type: functional
Chain of Nucleotide-binding oligomerization domain-containing protein 2 (Q9HC29 whole entry, the tested form may be a part): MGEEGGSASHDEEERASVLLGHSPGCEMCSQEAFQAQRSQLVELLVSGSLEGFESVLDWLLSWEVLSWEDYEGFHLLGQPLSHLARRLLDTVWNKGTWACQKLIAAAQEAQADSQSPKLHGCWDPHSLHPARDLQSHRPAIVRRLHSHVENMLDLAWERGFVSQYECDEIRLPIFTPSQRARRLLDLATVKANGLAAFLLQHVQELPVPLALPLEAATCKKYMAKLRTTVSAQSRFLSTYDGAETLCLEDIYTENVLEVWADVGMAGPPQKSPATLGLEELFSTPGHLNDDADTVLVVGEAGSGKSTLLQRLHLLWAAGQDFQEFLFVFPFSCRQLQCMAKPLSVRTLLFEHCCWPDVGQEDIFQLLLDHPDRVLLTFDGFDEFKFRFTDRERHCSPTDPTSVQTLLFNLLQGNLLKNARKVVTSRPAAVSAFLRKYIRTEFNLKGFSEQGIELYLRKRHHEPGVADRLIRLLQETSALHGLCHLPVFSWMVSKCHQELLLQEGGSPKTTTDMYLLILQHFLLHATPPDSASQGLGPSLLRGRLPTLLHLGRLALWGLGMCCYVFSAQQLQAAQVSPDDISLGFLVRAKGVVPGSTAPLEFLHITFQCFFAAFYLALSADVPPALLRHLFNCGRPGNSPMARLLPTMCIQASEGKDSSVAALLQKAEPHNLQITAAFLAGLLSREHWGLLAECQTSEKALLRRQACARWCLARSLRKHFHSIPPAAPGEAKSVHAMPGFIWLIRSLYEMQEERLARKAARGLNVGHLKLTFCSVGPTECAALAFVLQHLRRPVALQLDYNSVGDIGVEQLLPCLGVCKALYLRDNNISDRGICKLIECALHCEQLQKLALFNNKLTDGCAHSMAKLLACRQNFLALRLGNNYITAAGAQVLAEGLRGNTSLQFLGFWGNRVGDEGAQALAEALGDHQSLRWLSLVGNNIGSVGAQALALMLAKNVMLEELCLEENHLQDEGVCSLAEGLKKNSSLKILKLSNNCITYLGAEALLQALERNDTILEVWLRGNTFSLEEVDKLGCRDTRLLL

[3] = control 3'UTR Renilla luciferase suppression, dose response, counter-screen for Shn3 inhibitor project, cell-based, Clone20-Shn3RL, cherry-picked (AID 624133); assay type: functional
[4] = tested on: INS1; experiment: beta cell apoptosis inhibitors, cytokine rescue, dose response, luminescence, retest (AID 449756); assay type: functional, cell-based; conditions: Rattus norvegicus;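 further: cell death triggered by IL-1 beta plus TNF-alpha plus IFN-gamma mixture; protective hits raise ATP signal compared with cytokine alone wells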
[5] = tested on: HEK293; experiment: NOD1 signaling inhibitors, primary screen, cell-based, luminescence, uHTS (AID 1578); assay type: functional; conditions: Homo sapiens
[6] = NIH-3T3 fibroblast cytotoxicity, dose response, cytotoxicity control for antifungal single agent project, cell-based, Alamar Blue, dry powder (AID 602188); assay type: functional
[7] = molecular target: T1, Heat shock factor protein 1 (Mus musculus, UniProt P38532); experiment: HSF1 potentiators in luciferase reporter cells, confirmation, cell-based, NIH3T3, luminescence, dose retest (AID 435004); assay type: functional;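 further: stress induced by proteasome inhibitor MG132 added 30 min after compound; luciferase reporter driven by HSF1 response element in NIH3T3 cells; actives raise luminescence as potentiators of the MG132 stress response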
T1 sequence (P38532 whole entry): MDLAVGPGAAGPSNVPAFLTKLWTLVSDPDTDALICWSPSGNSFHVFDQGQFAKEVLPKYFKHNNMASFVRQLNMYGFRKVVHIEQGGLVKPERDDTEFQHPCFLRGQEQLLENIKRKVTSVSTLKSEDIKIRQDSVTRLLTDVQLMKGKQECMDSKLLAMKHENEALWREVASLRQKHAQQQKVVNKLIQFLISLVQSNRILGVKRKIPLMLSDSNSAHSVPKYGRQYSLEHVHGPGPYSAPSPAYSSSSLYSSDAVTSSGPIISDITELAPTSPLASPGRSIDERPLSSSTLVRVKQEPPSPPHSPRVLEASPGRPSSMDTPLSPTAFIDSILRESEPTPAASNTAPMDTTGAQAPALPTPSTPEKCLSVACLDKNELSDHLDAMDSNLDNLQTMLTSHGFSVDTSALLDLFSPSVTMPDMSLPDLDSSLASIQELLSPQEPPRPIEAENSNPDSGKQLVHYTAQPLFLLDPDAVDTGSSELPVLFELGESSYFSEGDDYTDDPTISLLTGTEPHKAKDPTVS

[8] = HepG2 cell cytotoxicity, dose response, cytotoxicity control for Shn3 inhibitor project, CellTiter-Glo, cherry-picked (AID 624134); assay type: functional, cell-based
[9] = tested on: HEK293; experiment: inhibitors of LMP1-driven NF-kB reporter, dose response, cell-based, HEK293, luciferase, cherry-pick (AID 588343); assay type: functional; conditions: Homo sapiens
[10] = tested on: HEK293; experiment: cells; assay type: functional, cell-based; conditions: Homo sapiens
[11] = Shn3 3'UTR reporter inhibitors, dose response, cell-based, Clone20 osteoblasts, firefly luciferase, cherry-picked (AID 624132); assay type: functional;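 further: firefly luciferase luminescence from reporter carrying the Shn3 3'UTR in osteoblasts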
[12] = tested on: HEK293; experiment: cells; assay type: functional, cell-based; conditions: Homo sapiens; remark: listed apart in the source
[13] = cytotoxicity in HEK-293T cells, dose response, cytotoxicity control for TCR NF-kB inhibitor project, luminescence, T-cell screen hits (AID 489026); assay type: functional, cell-based;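 further: cells exposed to compound about 14 hours before the viability readout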
[14] = molecular target: T2, Kappa-type opioid receptor (Homo sapiens, UniProt P41145); assay type: functional
T2 sequence (P41145 whole entry): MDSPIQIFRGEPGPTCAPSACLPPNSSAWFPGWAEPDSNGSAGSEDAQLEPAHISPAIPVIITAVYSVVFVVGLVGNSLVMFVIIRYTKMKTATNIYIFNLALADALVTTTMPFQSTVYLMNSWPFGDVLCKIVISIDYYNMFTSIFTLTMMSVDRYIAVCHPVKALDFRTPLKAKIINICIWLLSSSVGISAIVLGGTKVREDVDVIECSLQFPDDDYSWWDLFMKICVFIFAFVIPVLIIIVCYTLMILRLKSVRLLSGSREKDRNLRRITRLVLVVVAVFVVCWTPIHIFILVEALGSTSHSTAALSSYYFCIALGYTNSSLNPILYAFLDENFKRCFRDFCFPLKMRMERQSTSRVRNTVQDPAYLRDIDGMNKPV

[15] = inhibitors of intracellular T. cruzi replication, confirmation, NIH3T3 host cells, beta-gal luminescence (AID 2044); assay type: functional, cell-based;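 further: intracellular parasites grown in NIH/3T3 mouse fibroblasts as host cells; luminescent beta-galactosidase reporter signal from transgenic T. cruzi replicating inside host cells; inhibitors lower the luminescence signal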
[16] = molecular target: T2, Kappa-type opioid receptor; assay type: functional; remark: listed apart in the source
[17] = tested on: HEK293; experiment: cells; assay type: functional, cell-based; conditions: Homo sapiens; remark: listed apart in the source
[18] = molecular target: Beta-galactosidase (Escherichia coli, UniProt Q8VNN2); assay type: functional
Chain of Beta-galactosidase (Q8VNN2 whole entry): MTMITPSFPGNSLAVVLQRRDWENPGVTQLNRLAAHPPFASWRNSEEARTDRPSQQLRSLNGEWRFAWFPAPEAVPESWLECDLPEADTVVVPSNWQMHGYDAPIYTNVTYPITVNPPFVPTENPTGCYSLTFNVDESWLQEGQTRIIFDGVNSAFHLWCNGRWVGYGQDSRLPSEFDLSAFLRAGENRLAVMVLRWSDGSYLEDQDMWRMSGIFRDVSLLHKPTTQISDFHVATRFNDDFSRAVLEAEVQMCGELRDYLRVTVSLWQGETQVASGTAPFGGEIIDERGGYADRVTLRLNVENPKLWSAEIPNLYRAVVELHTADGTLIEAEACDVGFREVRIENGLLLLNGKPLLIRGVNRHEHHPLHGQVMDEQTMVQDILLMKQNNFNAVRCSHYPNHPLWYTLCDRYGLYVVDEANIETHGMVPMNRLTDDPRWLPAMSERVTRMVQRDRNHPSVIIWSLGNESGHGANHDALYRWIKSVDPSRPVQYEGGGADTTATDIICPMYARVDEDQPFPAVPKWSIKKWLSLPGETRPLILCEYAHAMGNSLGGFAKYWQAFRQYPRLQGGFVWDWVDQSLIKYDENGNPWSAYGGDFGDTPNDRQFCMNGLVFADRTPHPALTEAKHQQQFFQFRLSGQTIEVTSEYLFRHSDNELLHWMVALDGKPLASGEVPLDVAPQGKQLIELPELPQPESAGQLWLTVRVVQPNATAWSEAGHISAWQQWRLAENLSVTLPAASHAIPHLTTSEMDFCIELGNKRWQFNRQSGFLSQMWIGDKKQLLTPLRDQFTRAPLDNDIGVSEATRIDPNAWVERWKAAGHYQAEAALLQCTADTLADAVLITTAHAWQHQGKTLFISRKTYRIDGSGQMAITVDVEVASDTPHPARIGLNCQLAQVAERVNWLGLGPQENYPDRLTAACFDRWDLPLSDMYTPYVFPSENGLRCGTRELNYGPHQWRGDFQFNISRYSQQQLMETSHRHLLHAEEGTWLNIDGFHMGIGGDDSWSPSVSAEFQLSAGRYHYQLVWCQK

[19] = tested on: HEK293; experiment: NOD2 signaling inhibitors in MDP-stimulated cells, cell-based, uHTS, luminescence (AID 2001); assay type: functional; conditions: Homo sapiens
[20] = molecular target: Benomyl/methotrexate resistance protein (Candida albicans, UniProt P28873); experiment: CaMdr1 efflux pump inhibitor potency, dose response, singleplex, Cherry Pick1 hits (AID 588608); assay type: functional
Chain of Benomyl/methotrexate resistance protein (P28873 whole entry): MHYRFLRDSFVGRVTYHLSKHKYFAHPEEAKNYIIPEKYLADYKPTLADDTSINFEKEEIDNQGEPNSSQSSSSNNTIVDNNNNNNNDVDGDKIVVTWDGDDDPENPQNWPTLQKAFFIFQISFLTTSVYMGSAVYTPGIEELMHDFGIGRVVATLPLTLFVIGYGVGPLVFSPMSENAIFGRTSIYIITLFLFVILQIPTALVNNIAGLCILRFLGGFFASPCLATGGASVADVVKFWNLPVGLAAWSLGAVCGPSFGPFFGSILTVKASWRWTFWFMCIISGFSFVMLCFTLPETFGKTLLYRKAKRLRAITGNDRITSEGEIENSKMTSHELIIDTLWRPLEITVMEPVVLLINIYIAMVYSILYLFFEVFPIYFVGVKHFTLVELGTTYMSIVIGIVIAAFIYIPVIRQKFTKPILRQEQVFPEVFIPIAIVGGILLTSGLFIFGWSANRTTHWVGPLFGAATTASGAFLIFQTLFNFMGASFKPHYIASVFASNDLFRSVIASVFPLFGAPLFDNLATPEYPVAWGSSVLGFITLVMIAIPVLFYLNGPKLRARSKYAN

[21] = molecular target: T3, Ubiquitin-conjugating enzyme E2 N (Homo sapiens, UniProt P61088); assay type: functional
T3 sequence (P61088 whole entry): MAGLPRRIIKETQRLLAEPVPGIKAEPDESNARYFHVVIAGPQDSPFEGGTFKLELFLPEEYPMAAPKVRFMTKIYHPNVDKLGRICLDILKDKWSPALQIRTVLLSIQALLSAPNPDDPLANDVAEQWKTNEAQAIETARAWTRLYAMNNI

[22] = molecular target: Prothrombin (Bos taurus, UniProt P00735); experiment: thrombin inhibition, dose response, biochemical, fluorescence polarization, uHTS hits (AID 602369); assay type: functional
[23] = molecular target: T4, Bcl-2-related protein A1 (Mus musculus, UniProt Q07440); assay type: functional;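 further: confirmatory dose–response counterscreen on Bfl-1, used to check hits from a UBC13 polyubiquitin inhibitor campaign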
T4 sequence (Q07440 whole entry): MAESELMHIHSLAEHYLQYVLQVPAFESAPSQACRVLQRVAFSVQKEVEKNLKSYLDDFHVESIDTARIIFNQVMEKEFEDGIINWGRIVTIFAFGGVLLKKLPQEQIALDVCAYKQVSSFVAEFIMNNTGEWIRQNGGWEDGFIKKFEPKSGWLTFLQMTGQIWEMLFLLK

[24] = molecular target: Heat shock protein HSP 90-alpha (Homo sapiens, UniProt P07900); assay type: functional, organism-based
[25] = molecular target: T5, DNA repair protein RAD52 homolog (Homo sapiens, UniProt P43351); assay type: functional, biochemical
T5 sequence (P43351 whole entry): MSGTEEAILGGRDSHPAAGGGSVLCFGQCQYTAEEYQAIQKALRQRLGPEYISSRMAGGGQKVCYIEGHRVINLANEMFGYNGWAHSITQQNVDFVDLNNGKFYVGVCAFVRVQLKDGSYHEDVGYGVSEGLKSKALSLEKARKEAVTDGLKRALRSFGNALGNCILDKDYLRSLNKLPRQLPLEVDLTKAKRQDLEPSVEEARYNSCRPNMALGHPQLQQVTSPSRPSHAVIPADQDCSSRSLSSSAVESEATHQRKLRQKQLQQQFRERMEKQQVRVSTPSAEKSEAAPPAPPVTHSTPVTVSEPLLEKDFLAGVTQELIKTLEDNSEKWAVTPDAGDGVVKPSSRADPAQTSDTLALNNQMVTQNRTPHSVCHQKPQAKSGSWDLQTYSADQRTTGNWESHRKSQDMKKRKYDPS

[26] = molecular target: T3, Ubiquitin-conjugating enzyme E2 N; assay type: functional; remark: listed apart in the source
[27] = inhibitors of firefly luciferase expression or activity, dose response, H4 neuroglioma cells, luminescence (AID 1990); assay type: functional, cell-based
[28] = inhibitors of SNCA 5'UTR-driven reporter translation, confirmation, H4 neuroglioma cells, luminescence (AID 1988); assay type: functional, cell-based
[29] = molecular target: 72 kDa type IV collagenase (Homo sapiens, UniProt P08253); experiment: Dose Response validation of uHTS RPN11 inhibitor hits using a MMP-2 Fluorescence assay.; assay type: functional
Chain of 72 kDa type IV collagenase (P08253 whole entry): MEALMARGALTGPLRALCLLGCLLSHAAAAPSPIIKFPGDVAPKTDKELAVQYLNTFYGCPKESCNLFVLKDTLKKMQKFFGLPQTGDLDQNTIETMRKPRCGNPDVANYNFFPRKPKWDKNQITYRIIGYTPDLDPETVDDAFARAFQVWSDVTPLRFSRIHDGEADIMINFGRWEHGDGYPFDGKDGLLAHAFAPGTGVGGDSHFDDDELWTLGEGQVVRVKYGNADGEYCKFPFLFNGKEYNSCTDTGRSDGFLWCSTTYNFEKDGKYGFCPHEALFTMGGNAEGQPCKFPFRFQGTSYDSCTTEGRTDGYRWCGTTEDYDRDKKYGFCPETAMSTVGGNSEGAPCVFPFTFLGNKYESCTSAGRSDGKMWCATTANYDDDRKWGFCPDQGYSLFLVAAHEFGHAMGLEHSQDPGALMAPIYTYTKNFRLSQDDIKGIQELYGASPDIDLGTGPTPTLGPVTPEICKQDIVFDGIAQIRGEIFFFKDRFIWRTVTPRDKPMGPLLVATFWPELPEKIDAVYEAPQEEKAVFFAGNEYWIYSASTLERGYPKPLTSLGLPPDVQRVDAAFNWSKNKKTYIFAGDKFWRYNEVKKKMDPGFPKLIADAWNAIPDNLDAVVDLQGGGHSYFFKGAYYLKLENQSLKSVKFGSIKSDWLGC

[30] = molecular target: 26S proteasome non-ATPase regulatory subunit 14 (Homo sapiens, UniProt O00487); experiment: inhibition of proteasome subunit RPN11 – biochemical, fluorescence polarization, uHTS hits, confirmation (AID 602368); assay type: functional
Chain of 26S proteasome non-ATPase regulatory subunit 14 (O00487 whole entry): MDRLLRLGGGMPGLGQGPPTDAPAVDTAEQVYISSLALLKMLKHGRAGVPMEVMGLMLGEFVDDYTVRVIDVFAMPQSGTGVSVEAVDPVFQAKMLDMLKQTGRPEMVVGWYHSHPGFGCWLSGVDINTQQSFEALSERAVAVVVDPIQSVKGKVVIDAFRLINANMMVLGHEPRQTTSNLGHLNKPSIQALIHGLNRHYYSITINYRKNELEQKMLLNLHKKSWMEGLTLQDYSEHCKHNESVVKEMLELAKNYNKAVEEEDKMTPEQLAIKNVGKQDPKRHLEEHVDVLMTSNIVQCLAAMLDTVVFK

[31] = molecular target: T6, Apoptotic protease-activating factor 1 (Homo sapiens, UniProt O14727); assay type: functional
T6 sequence (O14727 whole entry): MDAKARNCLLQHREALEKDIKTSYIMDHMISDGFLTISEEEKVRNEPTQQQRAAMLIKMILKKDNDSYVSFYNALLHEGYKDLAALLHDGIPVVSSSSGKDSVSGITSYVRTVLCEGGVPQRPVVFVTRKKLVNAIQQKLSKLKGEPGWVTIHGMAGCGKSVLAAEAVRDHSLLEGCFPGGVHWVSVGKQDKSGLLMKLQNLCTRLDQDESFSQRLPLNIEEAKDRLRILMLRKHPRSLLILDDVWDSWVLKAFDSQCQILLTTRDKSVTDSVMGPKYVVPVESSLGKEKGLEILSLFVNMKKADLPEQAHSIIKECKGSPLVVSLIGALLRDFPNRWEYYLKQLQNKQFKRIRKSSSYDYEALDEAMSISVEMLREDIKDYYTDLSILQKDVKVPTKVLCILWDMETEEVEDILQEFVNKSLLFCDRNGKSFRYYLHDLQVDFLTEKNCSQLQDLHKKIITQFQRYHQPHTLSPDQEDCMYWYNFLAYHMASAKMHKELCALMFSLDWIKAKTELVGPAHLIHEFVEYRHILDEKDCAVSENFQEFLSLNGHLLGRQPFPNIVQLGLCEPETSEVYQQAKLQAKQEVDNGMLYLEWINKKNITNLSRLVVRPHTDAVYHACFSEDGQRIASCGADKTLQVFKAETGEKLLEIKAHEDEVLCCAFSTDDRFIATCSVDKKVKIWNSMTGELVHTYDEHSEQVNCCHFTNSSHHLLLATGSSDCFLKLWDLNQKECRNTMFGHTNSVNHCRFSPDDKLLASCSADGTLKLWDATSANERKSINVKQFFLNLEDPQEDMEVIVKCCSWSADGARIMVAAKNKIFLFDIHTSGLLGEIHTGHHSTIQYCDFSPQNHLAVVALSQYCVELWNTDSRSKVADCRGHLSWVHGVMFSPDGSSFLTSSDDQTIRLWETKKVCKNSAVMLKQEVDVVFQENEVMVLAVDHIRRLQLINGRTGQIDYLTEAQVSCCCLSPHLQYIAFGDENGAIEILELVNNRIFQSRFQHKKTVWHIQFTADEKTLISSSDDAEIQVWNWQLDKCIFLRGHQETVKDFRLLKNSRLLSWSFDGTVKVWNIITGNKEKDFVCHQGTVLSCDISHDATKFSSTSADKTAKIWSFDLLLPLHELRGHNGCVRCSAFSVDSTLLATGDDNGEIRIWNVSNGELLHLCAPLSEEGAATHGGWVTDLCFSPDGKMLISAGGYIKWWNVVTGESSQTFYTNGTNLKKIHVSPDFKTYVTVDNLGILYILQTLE

[32] = molecular target: Melanin-concentrating hormone receptor 1 (Homo sapiens, UniProt Q99705); experiment: Late-stage fluorescence-based counterscreen for antagonists of the G-protein coupled receptor 7 (GPR7): cell-based dose response assay to identify antagonists of the melanin-concentrating hormone receptor 1 (MCHR1) Set 5.; assay type: functional
Chain of Melanin-concentrating hormone receptor 1 (Q99705 whole entry): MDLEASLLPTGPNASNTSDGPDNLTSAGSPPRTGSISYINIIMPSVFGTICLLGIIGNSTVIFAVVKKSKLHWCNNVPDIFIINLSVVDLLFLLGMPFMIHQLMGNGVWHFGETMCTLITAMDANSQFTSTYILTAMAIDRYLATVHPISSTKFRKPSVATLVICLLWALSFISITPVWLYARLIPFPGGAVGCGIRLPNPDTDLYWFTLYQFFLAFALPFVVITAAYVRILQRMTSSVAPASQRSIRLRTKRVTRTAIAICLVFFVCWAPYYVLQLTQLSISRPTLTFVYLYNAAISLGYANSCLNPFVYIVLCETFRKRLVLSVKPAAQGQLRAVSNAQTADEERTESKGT

[33] = molecular target: T7, Neuropeptides B/W receptor type 1 (Homo sapiens, UniProt P48145); experiment: GPR7 antagonist potency, late-stage follow-up, cell-based, fluorescence, dose response, set 5 (AID 588566); assay type: functional
T7 sequence (P48145 whole entry): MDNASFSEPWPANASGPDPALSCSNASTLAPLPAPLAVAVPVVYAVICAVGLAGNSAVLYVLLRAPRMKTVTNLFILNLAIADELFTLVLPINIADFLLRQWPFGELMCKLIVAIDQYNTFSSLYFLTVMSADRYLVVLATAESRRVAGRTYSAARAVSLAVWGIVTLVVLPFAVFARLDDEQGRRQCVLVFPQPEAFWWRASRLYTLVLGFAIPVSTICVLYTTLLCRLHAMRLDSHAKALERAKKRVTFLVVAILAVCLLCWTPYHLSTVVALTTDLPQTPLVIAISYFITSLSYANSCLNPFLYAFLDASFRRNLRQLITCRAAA

For `O=C(Nc1nc(-c2ccccn2)cs1)c1ccc(Cl)s1`, the EC50 [1] was 506 nM (active), the EC50 [2] was > 20 µM (inactive) and the AC50 [3] was 740 nM (active). The AC50 [4] was 759 nM (active), the EC50 [5] was 7.06 µM (active) and the AC50 [6] was 949 nM (active). For the same compound, the EC50 [7] was 2.06 µM (inconclusive), the AC50 [8] was 47.5 µM (active) and the AC50 [9] was 515 nM (active). The IC50 [10] was 8.39 µM (active), the AC50 [11] was 817 nM (active) and the IC50 [12] was > 20 µM (inactive). The IC50 [13] was 36.8 µM (inactive), the IC50 [14] was > 31.5 µM (inactive) and the EC50 [15] was 279 nM (active). The IC50 [16] was over 32 µM, the IC50 [17] was > 20 µM (inactive) and the EC50 [18] was > 31.5 µM (inactive). For the same compound, the IC50 [19] was 4.18 µM (active).
With `Nc1c(Cl)cc(C2=NCCn3nc4ccccc4c32)cc1Cl` the EC50 [20] was 3.99 µM (active).
In the case of `CCCCCCCCCCOC(=O)Cn1c(COc2ccc(Cl)cc2)[n+](C)c2ccccc21`, the IC50 [21] is reported as 6.53 µM (active), the IC50 [22] is reported as 44.6 µM (active) and the IC50 [23] is reported as 10.1 µM (active). The AC50 [24] was 7.94 µM (active), the AC50 [25] was 7.08 µM (active) and the IC50 [26] was 6.71 µM (active). The EC50 [27] was 12.9 µM (active), the EC50 [28] was > 120 µM (not active) and the IC50 [29] was > 100 µM (inactive). For the same compound, the IC50 [30] was 19.1 µM (active) and the IC50 [31] was 8.57 µM (active).
In the case of `COc1ccc(Oc2c(Cl)cnn(CC(=O)OC(C)(C)C)c2=O)cc1`, the IC50 [32] is reported as ~19.9 µM (inactive) and the IC50 [33] is reported as 14 µM (inactive).
In the case of `CCOc1ccc(Oc2c(SC)cnn(Cc3cccc4ccccc34)c2=O)cc1`, the IC50 [32] is reported as 19.6 µM (inactive) and the IC50 [33] is reported as > 20 µM (inactive).
